Legend:
[1] = molecular target: T1, obelin (apo-obelin; obelin-v when charged with CTZ-v) (Obelia longissima, UniProt Q27709); experiment: charging of apo-obelin, Ca2+ discharge, then fluorescence of discharged protein; format: biochemical; conditions: O2, Ca2+; charging overnight with twofold molar excess in 5 mM EDTA, 10 mM DTT, 20 mM Tris-HCl pH 7.2, 4 °C
T1 construct: Ca2+-discharged form; two molecules per asymmetric unit
T1 sequence (Q27709 1-195): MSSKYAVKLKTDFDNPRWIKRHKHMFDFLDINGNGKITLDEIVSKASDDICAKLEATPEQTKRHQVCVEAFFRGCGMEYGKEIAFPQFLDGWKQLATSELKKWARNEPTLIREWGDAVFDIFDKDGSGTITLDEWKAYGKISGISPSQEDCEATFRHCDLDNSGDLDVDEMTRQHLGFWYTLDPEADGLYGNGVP

[2] = molecular target: T1, obelin (apo-obelin; obelin-v when charged with CTZ-v); experiment: charging of apo-obelin, Ca2+ discharge, then fluorescence and structure of discharged protein; format: biochemical; conditions: O2, Ca2+; charging overnight with twofold molar excess in 5 mM EDTA, 10 mM DTT, 20 mM Tris-HCl pH 7.2, 4 °C

| SMILES | charging of apo-obelin, Ca2+ discharge, then fluorescence of discharged protein [1] | charging of apo-obelin, Ca2+ discharge, then fluorescence and structure of disch [2] |
| --- | --- | --- |
| Oc1ccc(Cc2nc3c(Cc4ccccc4)nc(-c4ccc(O)cc4)cn3c2O)cc1 [CTZ] | apo-obelin was incubated overnight with a twofold molar excess of CTZ or CTZ-v |  |
| O=c1c(Cc2ccc(O)cc2)nc2c(Cc3ccccc3)[nH]c3c4ccc(O)cc4ccc3n1-2 [CTZ-v] |  | apo-obelin was incubated overnight with a twofold molar excess of CTZ or CTZ-v |

— paper PMC9666459, “Crystal structure of semi-synthetic obelin-v after calcium induced bioluminescence implies coelenteramine as the main reaction product” (Scientific Reports, 2022)
